The values below come from US5686626A, “1,3-dihydro-1-amino-2H-indol-2-ones” (Hoechst Marion Roussel, Inc., priority 1995, dated 1997).

The nature of assay [1]: Dark Avoidance Assay (scopolamine induced memory deficit reversal). It counts as in vivo, mice. To be noted: Mus musculus, read-out: % of Animals With Scopolamine Induced Memory Deficit Reversal; for responders at 3 mg/kg: dose 3.0 mg/kg of body wt; for responders at 0.63 mg/kg: dose 0.63 mg/kg of body wt; for responders at 1.25 mg/kg: dose 1.25 mg/kg of body wt; for responders at 0.3 mg/kg: dose 0.3 mg/kg of body wt. Here is the method: The compounds of the present invention are also useful in the treatment of various memory dysfunctions characterized by decreased cholinergic function such as Alzheimer's Disease.
In this assay, mice are tested for their ability to remember an unpleasant stimulus for a period of 24 hours. A mouse is placed in a chamber that contains a dark compartment; a strong incandescent light drives it to the dark compartment, where an electric shock is administered through metal plates on the floor. The animal is removed from the testing apparatus and tested again, 24 hours later, for the ability to remember the electric shock.
If scopolamine, an anticholinergic that is known to cause memory impairment, is administered before an animal's initial exposure to the test chambers, the animal re-enters the dark compartment shortly after being placed in the test chamber 24 hours later. The effect of scopolamine is blocked by an active test compound, resulting in a greater interval before re-entry into the dark compartment.
The results for an active compound are expressed as the percent of a group of animals in which the effect of scopolamine is blocked, as manifested by an increased interval between being placed in the test chamber and re-entering the dark compartment. Presented in Table 2 is the activity of some of the compounds of the invention in this assay.

The nature of assay [2]: phenyl-para-quinone writhing assay in mice (analgesia). To be noted: for ED50: Mus musculus, sc, read-out: ED50 of Writhing (subcutaneous dose at which 50% of the phenyl-para-quinone induced writhing is inhibited). It counts as in vivo.
Assay [3] in a line: supramaximal electroshock (SES) assay (anticonvulsant activity). It counts as in vivo, male mouse (Charles River, CD-1). To be noted: Mus musculus, ip, 0.5 h; male mice, i.p., 30 minute pretreat; read-out: ED50 (anticonvulsant, protection from extensor tonus). Here is the method:
The compounds of the invention are also useful as anticonvulsants due to their anticonvulsant activity in mammals. Anticonvulsant activity is measured in the male mouse using the supramaximal electroshock (SES) assay described in Arch. Int. Pharmacodyn. 92:97-107, 1952. In this procedure, groups of male mice (Charles River, CD-1, 18-30 gm) are used. Drugs are prepared using distilled water and, if insoluble, a surfactant is added. Control animals receive vehicle. Drugs are routinely administered interperitoneally (i.p.) The dosage volume is 10 ml/kg. A primary screen is given a 30 minute pretreat. The animals' eyes are placed across the output terminals of an A.C. shocker that delivers 206 volts rms for 300 msec. Electrode paste coats the animals' eyes at the point of contact with the terminals. […] Protection is expressed as normalized percent inhibition relative to vehicle control.
In general terms: Protection in the maximal electroshock model is a classic sign of anticonvulsant action.

Setting [4] is: mice, dose 1.0 mg/kg of body wt, retest after 24 hours.

Like-named read-outs stand apart in the source and are kept apart here.

Turning to `CCCN(c1ccncc1)N1C(=O)C2(CCN(C)CC2)c2ccccc21` [1'Methyl-1-(propyl-4-pyridinylamino)spiro-[3H-indole-3,4'-piperidin]-2(1 H)-one], the responders at 1 mg/kg in assay [1] (24 h) was found to be 20%. `O=C1Cc2ccccc2N1Nc1ccncc1F` [1,3-Dihydro-1-(3-fluoro-4-pyridinylamino)-2H-indol-2-one]: the responders at 1 mg/kg in assay [1] (setting [4]) worked out at 27%. Also, the responders at 3 mg/kg in assay [1] (mice, retest after 24 hours) was 27%. Usually ED50 stands for the midpoint of the dose-response relation. Consider `O=C1Cc2ccccc2N1Nc1ccncc1` [1,3-Dihydro-1-(4-pyridinylamino)-2H-indol-2-one], for which the responders at 0.31 mg/kg in assay [1] (mice, dose 0.31 mg/kg of body wt, retest after 24 hours) turned out to be 27%. In assay [1] (mice, retest after 24 hours), the responders at 0.63 mg/kg came to 27% and the responders at 1.25 mg/kg turned out to be 27%. For the same compound, the ED50 in assay [2] worked out at 0.69 mg/kg. Consider `CCCN(c1ccncc1)N1C(=O)Cc2ccccc21` [1,3-Dihydro-1-(propyl-4-pyridinylamino)-2H-indol-2-one], for which the 50% effective dose (ED50) in assay [3] is 15.9 mg/kg. Besides, in assay [1] (mice, retest after 24 hours), the responders at 1.25 mg/kg came out at 27%. Further, the “% Inhibition of Writhing (% decrease in writhing at a given dose)” value in assay [2] (20 mg/kg, s.c.) is given as -58%. With `CCCN(c1ccncc1F)N1C(=O)Cc2ccccc21` [1,3-Dihydro-1-[(3-fluoro-4-pyridinyl)-propylamino]-2H-indol-2-one], in assay [1] (mice, retest after 24 hours), the responders at 0.3 mg/kg came to 20% and the responders at 3 mg/kg was 20%. Consider `CC1C(=O)N(Nc2ccncc2F)c2ccccc21` (stereo not drawn) [1,3-Dihydro-1-[(3-fluoro-4-pyridinyl)amino]-3-methyl-2H-indol-2-one hemifumarate], for which, in assay [1] (mice, retest after 24 hours), the responders at 0.3 mg/kg was found to be 27% and the responders at 3 mg/kg worked out at 20%.

As to `CCCN(c1ccncc1)N1C(=O)C(C)(C)c2ccccc21` [1,3-Dihydro-3,3-dimethyl-1-(propyl-4-pyridinylamino)-2H-indol-2-one], the ED50 in assay [3] was determined as 30.7 mg/kg. Further, the responders at 0.3 mg/kg in assay [1] (mice, retest after 24 hours) is 20%. Turning to `CCCN(c1ccncc1)N1C(=O)C2(Cc3ccccc3C2)c2ccccc21` [1,3-dihydro-1'-(propyl-4-pyridinylamino)spiro[2H-indene-2,3'-[3H]indol]-2'(1'H)-one], the responders at 3 mg/kg in assay [1] (mice, retest after 24 hours) was determined as 25%. Regarding `CCCN(c1ccncc1F)N1C(=O)C(C)(C)c2ccccc21` [1,3-dihydro-3,3-dimethyl-1-[4-(3-fluoropyridinyl)propylamino]2H-indol-2-one], the responders at 0.3 mg/kg in assay [1] (mice, retest after 24 hours) worked out at 21%. In addition, the responders at 1 mg/kg in assay [1] (setting [4]) was 27%. With `NN1C(=O)C(Cc2ccncc2)(Cc2ccncc2)c2ccccc21` [1-Amino-3,3-bis(4-pyridinylmethyl)-1,3-dihydro-2H-indol-2-one], the responders at 0.3 mg/kg in assay [1] (mice, retest after 24 hours) amounted to 21%. Consider `CCC1(c2ccccc2)C(=O)NC(=O)NC1=O` [Phenobarbital, reference compound], for which the ED50 in assay [3] stood at 8.4 mg/kg.

As to `CC[C@@H]1C(=O)OC[C@@H]1Cc1cncn1C` [Pilocarpine, reference compound], in assay [1] (mice, retest after 24 hours), the responders at 1.25 mg/kg was found to be 19%. As to `O=C(O)c1ccccc1O` [Salicylic Acid, reference compound], the median effective dose (ED50) in assay [2] came out at 3.28 mg/kg. As for `Nc1c2c(nc3ccccc13)CCCC2` [Tacrine, reference compound], the responders at 0.63 mg/kg in assay [1] (mice, retest after 24 hours) is 13%.
